In PMC6932632 (Biochemistry, 2019) one finds Kd data, which are given here for one molecule.

This experiment concerns the target T1, p38γ (Homo sapiens, UniProt P53778).
T1 sequence (P53778 1-367): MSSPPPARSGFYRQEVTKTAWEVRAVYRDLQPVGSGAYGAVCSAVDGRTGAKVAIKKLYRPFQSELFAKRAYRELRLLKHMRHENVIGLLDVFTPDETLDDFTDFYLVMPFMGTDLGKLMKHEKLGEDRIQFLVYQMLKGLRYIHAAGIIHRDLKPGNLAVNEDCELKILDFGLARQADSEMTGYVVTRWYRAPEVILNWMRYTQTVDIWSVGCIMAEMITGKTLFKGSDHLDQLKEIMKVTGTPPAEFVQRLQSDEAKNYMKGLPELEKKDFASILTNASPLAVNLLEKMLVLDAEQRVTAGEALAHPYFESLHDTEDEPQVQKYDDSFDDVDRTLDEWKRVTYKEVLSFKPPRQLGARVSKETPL
Briefly: NMR titration. It is filed as binding.

A word on the Kd: it is the equilibrium constant for the complex coming apart. Read a low Kd as higher affinity. In the case of `Nc1ncnc2c1ncn2[C@@H]1O[C@H](COP(=O)(O)OP(=O)(O)OP(=O)(O)O)[C@@H](O)[C@H]1O` [ATP], the affinity, expressed as Kd, was 770 µM.
